Data as given in PubChem BioAssay AID2060492 (Molecular Pharmacology Branch, DTP, NCI, 2025).
Where “and” joins values, the source holds several entries; their conditions need not be identical. Identical values can stand only once.

Tested on: 695427-040-R-J1-PDC complex spheroids, viability percent T/C
Assay: Anticancer human tumor 695427-040-R-J1-PDC patient-derived colon adenocarcinoma cell line growth inhibition [GQUAD]
Conditions: for viability, T/C: stronger effect = lower value
Excerpt: DNA G-quadruplex Stabilizer Agents in Combinations in Complex Spheroids
A high-throughput screen of multi-cell type tumor spheroids was designed to identify active combinations of DNA G-quadruplex stabilizer agents and targeted small molecules. Complex spheroids include a stromal component modeled by human endothelial cells (HUVEC) and fibroblasts modeled by human mesenchymal stem cells (MSCs). The concentration ranges selected for each drug and investigational agent were based upon clinically achievable concentrations if the clinical Cmax of the agent was known.
Compounds. The drugs and investigational agents: pidnarulex (CX-5461; NSC782164), APTO-253 (NSC789042), BRACO-19 (NSC847499), peposertib (NSC802822), ceralasertib (NSC780249), elimusertib (NSC800525), camonsertib (NSC841442), AZD-1390 (NSC803789), olaparib (NSC753686), talazoparib (NSC767125), ART-558 (NSC835418), sotorasib (NSC818433), MRTX-1133 (NSC836407), SN-38 (NSC673596), topotecan (NSC609699), etoposide (NSC141540), doxorubicin (NSC123127), gemcitabine (NSC613327), 5-fluorouracil (NSC19893), paclitaxel (NSC125973), vemurafenib (NSC761431), panobinostat (NSC761190), R-306465 (JNJ-16241199; NSC773264), adavosertib (NSC754352), TP-3654 (NSC805149), carboplatin (NSC241240), KSQ-4279 (NSC840948), and staurosporine (NSC755774) were obtained from the National Cancer Institute (NCI) Developmental Therapeutics Program Chemical Repository (34). The FDA-approved anticancer drug set is available from the NCI Developmental Therapeutics Program. […] The stock solutions were prepared in dimethyl sulfoxide (DMSO, Sigma-Aldrich, St. Louis, MO, cat. D2650) at 800-fold the tested concentration and stored at -70 degrees C prior to their use. All drugs and investigational agents were tested over a range starting from a high concentration at or near the clinical Cmax and decreasing in half-log increments. If the clinical Cmax for an agent had not been determined, the highest concentration tested was 10 microM.
2.3 Cell Culture. All cells were maintained in an incubator at 37 degrees C and 5% CO2 with 95% humidity. The PDC lines were cultured according to standard operating procedures established by the NCI PDMR. All PDCs were thawed and cultured in Matrigel-coated flasks prepared with a working solution of 1X Ham's F-12 nutrient mix, without supplementation (Invitrogen, cat. 11765054), 100 U/mL penicillin-streptomycin (Invitrogen, cat. 15140122), and 2.5% Matrigel (Corning Inc., cat. 354248) for the first three passages. The 857933-349-R-J2-PDC line was cultured in 6C/Colon 1B media, which includes advanced DMEM/F-12 (Thermo Fisher Scientific, cat. 12634028), 10 mM HEPES (Thermo Fisher Scientific, cat. 15630080), 1X GlutaMAX supplement (Thermo Fisher Scientific, cat. 35050061), 0.1 mg/mL primocin (InvivoGen, cat. ant-pm-2), 10% defined fetal bovine serum, heat inactivated (HyClone Laboratories Inc., cat. SH30070.03HI), 50% L-WRN conditioned media (ATCC, cat. CRL-3276), 1.25 mM N-Acetyl-L-cysteine (Sigma-Aldrich, cat. A9165), 10 mM nicotinamide (Sigma-Aldrich, cat. N0636), 1X B-27 supplement (Thermo Fisher Scientific, cat. 17504044), 1X N-2 supplement (Thermo Fisher Scientific, cat. 17502048), 10 microM Y-27632 dihydrochloride (Tocris Bioscience, cat. 1254), and 50 ng/mL human EGF recombinant protein (Thermo Fisher Scientific, cat. PHG0311). The 485176-168-R4-J1-PDC line was cultured in Panc media, which includes all 6C/Colon 1B media components plus 100 ng/mL human FGF-10 (Thermo Fisher Scientific, cat. 100-26), 500 nM SB-431542 (Selleckchem, cat. S1067), and gastrin (Tocris, cat. 3006).
[…]

[1] = compound alone, run of 04/22/2024
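Also: spheroids exposed to compounds for seven days before readout.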

IC50 (curve of compound)	IC50 [1]	IC50 (compound alone, run of 04/16/2024)	SMILES	viability, T/C (compound 0.0316 µM)	viability, T/C (compound 0.1 µM)	viability, T/C (compound 0.316 µM)	viability, T/C (compound 1 µM)	viability, T/C (compound 3.16 µM)	viability, T/C (compound 10 µM)	viability, T/C (compound 0.000999 µM)	viability, T/C (compound 0.00316 µM)	viability, T/C (compound 0.00999 µM)	viability, T/C (compound 0.0999 µM)
> 10 µM and 1.76 µM			C#Cc1c(F)ccc2cc(O)cc(-c3ncc4c(N5CC6CCC(C5)N6)nc(OCC56CCCN5CC(F)C6)nc4c3F)c12 (stereo not drawn)	95.2% and 101% and 104%	102% and 103% and 111%	95.2% and 99.6% and 102%	94.3% and 81.3% and 97.2%	56.7% and 17.5% and 103%	59% and 15.6% and 82.1%				
> 10 µM			C=CC(=O)N1CCN(c2nc(=O)n(-c3c(C)ccnc3C(C)C)c3nc(-c4c(O)cccc4F)c(F)cc23)C(C)C1 (stereo not drawn)	97.2% and 103% and 104%	93.4% and 97.8% and 82.5%	103% and 101% and 102%	98.8% and 105% and 85.6%	92.6% and 110% and 68.9%	90.5% and 106% and 97.2%				
> 10 µM and 3.18 µM			C=CCn1c(=O)c2cnc(Nc3ccc(N4CCN(C)CC4)cc3)nc2n1-c1cccc(C(C)(C)O)n1	102% and 100% and 86.2%	105% and 85.8% and 89.5%	107% and 86.4% and 87.7%	105% and 80.5% and 61.6%	107% and 68.6% and 54.9%	66.5% and 54.9% and 35.4%				
			CC(=O)O[C@H]1C(=O)[C@@]2(C)[C@H]([C@H](OC(=O)c3ccccc3)[C@]3(O)C[C@H](OC(=O)[C@H](O)[C@@H](NC(=O)c4ccccc4)c4ccccc4)C(C)=C1C3(C)C)[C@]1(OC(C)=O)CO[C@@H]1C[C@@H]2O	92.5% and 97.5% and 84.8%	90.5% and 92.7% and 88.8%	72.9% and 89.3% and 82.4%							
> 10 µM and 1.72 µM and 1.44 µM			CC(C)(O)C1CCC(Nc2ccc3ncc(-c4cccc(C(F)(F)F)c4)n3n2)CC1 (stereo not drawn)	109% and 99.2% and 78.5%	101% and 97.4% and 88.4%	111% and 94.6% and 101%	105% and 80.1% and 66.9%	97.6% and 16% and 12.7%	87.6% and 15.5% and 13.5%				
> 10 µM			CC(C)n1c(=O)n(C)c2cnc3cc(F)c(-c4ccc(OCCCN5CCCCC5)nc4)cc3c21	97.4% and 115% and 95.5%	102% and 97.8% and 101%	110% and 102% and 97.8%	118% and 115% and 110%	74% and 109% and 84.6%	57.9% and 69.9% and 56.8%				
0.318 µM and 0.979 µM and 0.181 µM			CC1COCCN1c1cc(-c2ccnn2C)c2ccnc(-c3ccn[nH]3)c2n1 (stereo not drawn)	88.2% and 92.1% and 81.5%	71.7% and 79.9% and 54.3%	50.6% and 61.6% and 45.6%	34.4% and 49.4% and 35.4%	27.7% and 46.1% and 23%	26.8% and 40.4% and 24.8%				
0.431 µM and 0.993 µM and 2.09 µM			CC1COCCN1c1cc(C2(O)CC3CCC(C2)O3)c2cnn(-c3ccn[nH]3)c2n1 (stereo not drawn)	79.3% and 91.3% and 95%	66.4% and 78.3% and 88.3%	54.6% and 68.4% and 73.6%	41.1% and 52% and 56.7%	23.6% and 30.7% and 47.5%	20% and 23.6% and 36.8%				
> 10 µM			CC1COCCN1c1cc(C2(S(C)(=N)=O)CC2)nc(-c2ccnc3[nH]ccc23)n1 (stereo not drawn)	98.2% and 95.8% and 104%	80.6% and 102% and 90.9%	82% and 94.1% and 92.3%	85.7% and 94.6% and 87.3%	59.1% and 88.3% and 68.5%	55.5% and 73.5% and 54.2%				
> 10 µM and 8.3 µM			CCCS(=O)(=O)Nc1ccc(F)c(C(=O)c2c[nH]c3ncc(-c4ccc(Cl)cc4)cc23)c1F	96% and 108% and 99.2%	92.3% and 101% and 87.5%	90.3% and 110% and 114%	79.9% and 102% and 101%	65.4% and 116% and 103%	58.2% and 67.2% and 40.1%				
> 0.316 µM			CC[C@@]1(O)C(=O)OCc2c1cc1n(c2=O)Cc2cc3c(CN(C)C)c(O)ccc3nc2-1	93.2% and 102% and 89.2%		82.7% and 90.3% and 80.3%				93.2% and 113% and 101%	97.2% and 103% and 94.8%	109% and 96.7% and 103%	81.3% and 103% and 88.3%
0.175 µM and > 0.316 µM and 0.0507 µM			CCc1c2c(nc3ccc(O)cc13)-c1cc3c(c(=O)n1C2)COC(=O)[C@]3(O)CC	73.2% and 80.9% and 61%		41.9% and 54.7% and 34.1%				94.6% and 102% and 82.8%	74.4% and 96.6% and 88.9%	82.1% and 85% and 83.3%	54.9% and 68.1% and 33.5%
	> 10 µM		CN(C)c1ccc(Nc2c3ccc(NC(=O)CCN4CCCC4)cc3nc3cc(NC(=O)CCN4CCCC4)ccc23)cc1	104% [middle of 12 runs]	102% [middle of 12 runs]	104% [middle of 12 runs]	99.1% [middle of 12 runs]	103% [middle of 12 runs]	92.2% [middle of 12 runs]				
> 10 µM			COc1cc(C2c3cc4c(cc3C(OC3OC5COC(C)OC5C(O)C3O)C3COC(=O)C23)OCO4)cc(OC)c1O (stereo not drawn)	96.9% and 98.6% and 100%	90.3% and 81.4% and 90%	110% and 86.1% and 104%	97.4% and 90% and 94.7%	95.6% and 68.2% and 90.1%	77.5% and 61.8% and 75.3%				
> 10 µM and 7.33 µM			COc1ccc([C@@H](O)c2cc(-c3ncnc4cc(N5CCOCC5)ccc34)c(F)cc2Cl)nn1	91.1% and 96.7% and 94.1%	79.7% and 91.7% and 86.8%	101% and 91.6% and 95.4%	70.5% and 92% and 82.2%	69% and 67.2% and 61%	50.5% and 51% and 46%				
8.21 µM and 8.19 µM and 5.94 µM			COc1cccc2c1C(=O)c1c(O)c3c(c(O)c1C2=O)CC(O)(C(=O)CO)CC3OC1CC(N)C(O)C(C)O1 (stereo not drawn)	108% and 100% and 89.9%	88.7% and 92.9% and 92.4%	90.9% and 94.7% and 84.1%	90.9% and 89.8% and 68.8%	74.8% and 60.3% and 59%	44.5% and 47.9% and 43.7%				
> 10 µM			COc1ncnc(C2CC2)c1-c1ncc2cnn(Cc3ccc(-c4nc(C(F)(F)F)cn4C(C)C)cc3)c2n1	86.9% and 97.4% and 103%	92.5% and 96.3% and 95.5%	93.3% and 102% and 94.6%	81.1% and 99.2% and 93%	71.3% and 107% and 93.5%	82% and 78% and 98%				
	> 10 µM	> 10 µM	Cc1[nH]c2ccc(F)cc2c1-c1nc2c3cccnc3c3ncccc3c2[nH]1		103% [middle of 12 runs]	102% [middle of 12 runs]	97% [middle of 12 runs]	87.2% [middle of 12 runs]	80.3% [middle of 12 runs]				
> 0.316 µM			Cc1[nH]c2ccccc2c1CCNCc1ccc(/C=C/C(=O)NO)cc1	98.7% and 110% and 101%		89.6% and 68% and 71.7%				98.8% and 112% and 98%	103% and 100% and 96.8%	98.5% and 103% and 99.5%	96.6% and 93.8% and 94.2%
> 10 µM			Cc1cccc(N(C)C(=O)C2C(O)CCN2c2nc(C)cc(C(F)(F)F)c2C#N)c1 (stereo not drawn)	109% and 104% and 116%	90.7% and 90.4% and 93.4%	88.3% and 106% and 102%	101% and 94.8% and 87.2%	85.2% and 105% and 78.1%	87.4% and 90.2% and 74.4%				
			Cc1cnc(CNC(=O)c2c(=O)c3ccc(N4CCCN(C)CC4)nc3n3c2sc2ccccc23)cn1	95.8% [middle of 12 runs]	91.6% [middle of 12 runs]	85.3% [middle of 12 runs]	76.2% [middle of 12 runs]	58% [middle of 12 runs]	44.7% [middle of 12 runs]				
> 0.316 µM			Cn1ncnc1[C@H]1c2n[nH]c(=O)c3cc(F)cc(c23)N[C@@H]1c1ccc(F)cc1	108% and 98.7% and 87.9%		69.6% and 93.1% and 74.3%				93.3% and 88.5% and 90.8%	80.2% and 90.7% and 85.4%	88.3% and 95.7% and 109%	99.3% and 102% and 82.7%
> 10 µM and 4.78 µM			Nc1ccn(C2OC(CO)C(O)C2(F)F)c(=O)n1 (stereo not drawn)	81.8% and 90.5% and 89.3%	77.1% and 75.9% and 76.4%	72.5% and 81.7% and 66.8%	64.7% and 73.6% and 62.1%	51.1% and 69.9% and 47%	54.9% and 64.9% and 48.6%				
			O=C(NO)c1cnc(N2CCN(S(=O)(=O)c3ccc4ccccc4c3)CC2)nc1	99.2% and 107% and 96.1%	97.4% and 90.7% and 87.3%	98% and 73.8% and 71.3%							
> 10 µM			O=C(c1cc(Cc2n[nH]c(=O)c3ccccc23)ccc1F)N1CCN(C(=O)C2CC2)CC1	84.8% and 115% and 98.4%	94.2% and 98.6% and 103%	93.2% and 99.7% and 95.8%	99.4% and 97.6% and 92.7%	72.7% and 105% and 88.9%	88% and 93.6% and 77.6%				
> 10 µM			O=c1[nH]cc(F)c(=O)[nH]1	95.9% and 105% and 110%	85.8% and 99.6% and 96.4%	86% and 106% and 100%	97.5% and 100% and 88.9%	80.1% and 63.3% and 102%	86.5% and 98.3% and 92%				
